Assay results as given in patent publication US20070060558A1 (PALUMED S.A., priority 2004, published 2007).
Converted amounts (≈) assume the structure as drawn. Where two headings read alike, the source gives them in different places. Positions of bridges follow the written chain, without caps; N, C: chain ends. Non-standard residues stand in square brackets, D forms with d. Residues, ends and D or L forms follow the SMILES beside them. *: point of attachment. NMePhe(4-NMe2) = CN[C@@H](Cc1ccc(N(C)C)cc1)C(=O)O; Pip(4-oxo) = O=C1CCN[C@H](C(=O)O)C1; Picolinoyl(3-OH) = O=C(c1ncccc1O)*; Phg = N[C@H](C(=O)O)c1ccccc1; dAbu = CC[C@@H](N)C(=O)O

What was measured:
[1] = test system: S. pneumoniae PSSP CQI 201; assay: Antibacterial activity (MIC); format: cell-based, Streptococcus pneumoniae
[2] = test system: C. difficile CIP 104282; assay: Antibacterial activity (MIC); format: cell-based, Clostridium difficile; conditions: Clostridioides difficile, CIP104282
[3] = test system: S. pneumoniae PRSP; assay: Antibacterial activity (MIC), Table VII; format: cell-based; conditions: Streptococcus pneumoniae; S. pneumoniae PRSP (Table VII); read-out: MIC
[4] = test system: P. aeruginosa CIP 103467; assay: Antibacterial activity (MIC); format: cell-based; conditions: Pseudomonas aeruginosa, CIP103467; P. aeruginosa CIP 103467; read-out: MIC
[5] = test system: B. thuringiensis CIP 104676; assay: Antibacterial activity (MIC); format: cell-based; conditions: Bacillus thuringiensis, CIP104676; B. thuringiensis CIP 104676; read-out: MIC
[6] = test system: E. coli CIP 54127; assay: Antibacterial activity (MIC); format: cell-based; conditions: Escherichia coli, CIP54127; E. coli CIP 54127; read-out: MIC
[7] = test system: E. faecalis VRE CIP 104676; assay: Antibacterial activity (MIC/MBC); format: cell-based, Enterococcus faecalis; conditions: Enterococcus faecalis; E. faecalis VRE CIP 104676; read-out: MIC
[8] = test system: H. influenzae CIP 102514; assay: Antibacterial activity (MIC/MBC); format: cell-based, Haemophilus influenzae; conditions: Haemophilus influenzae, CIP102514; H. influenzae CIP 102514; read-out: MIC
[9] = test system: Staphylococcus aureus MSSA CIP 4.83; assay: Antibacterial activity (MIC/MBC); format: cell-based
[10] = test system: S. aureus MRSA clinical isolate; assay: Antibacterial activity (MIC); format: cell-based, Staphylococcus aureus
[11] = test system: S. pyogenes CIP 56.41T; assay: Antibacterial activity (MIC/MBC); format: cell-based, Streptococcus pyogenes
[12] = test system: S. epidermidis MSCNS (D10); assay: Antibacterial activity (MIC); format: cell-based; conditions: Staphylococcus epidermidis
[13] = test system: S. aureus MsrA PUL 5054; assay: Antibacterial activity (MIC); format: cell-based; conditions: Staphylococcus aureus
[14] = test system: Staphylococcus aureus MSSA 53.154; assay: Murine experimental septicaemia, in vivo efficacy; set-up: species or system mice; conditions: sc
Description: Experimental septicaemia was induced in mice as follows. Briefly, male Swiss OF1 mice (IFFA CREDO-Charles River) weighing 18 to 20 grams were infected intraperitoneally with 0.5 mL of a bacterial suspension containing 8.5×10^7 cfu of Staphylococcus aureus MSSA 53.154 (Institut Pasteur). The hybrid molecules were administered subcutaneously at 1 and 6 h post infection. Control and treatment groups at each dose were composed of seven mice. All the infected but untreated control mice died within 9 days. The 50% effective dose (ED50) values were calculated by a computerized program (GraphPad) from the survival rates on day 9 after infection.

[15] = test system: E. faecalis VRE VanB CIP106998; assay: Antibacterial activity (MIC); format: cell-based; conditions: Enterococcus faecalis
[16] = test system: E. faecalis VRE VanA CIP106996; assay: Antibacterial activity (MIC); format: cell-based; conditions: Enterococcus faecalis
[17] = test system: E. faecium VRE VanA CIP107387; assay: Antibacterial activity (MIC); format: cell-based; conditions: Enterococcus faecium
[18] = test system: S. pneumoniae PRSP (CQR 162); assay: Antibacterial activity (MIC); format: cell-based; conditions: Streptococcus pneumoniae, PRSP
[19] = test system: S. epidermidis MRCNS (E93); assay: Antibacterial activity (MIC); format: cell-based; conditions: Staphylococcus epidermidis
[20] = test system: S. aureus VISA CIP 106757; assay: Antibacterial activity (MIC); format: cell-based; conditions: Staphylococcus aureus
[21] = Staphylococcus aureus, S. aureus MSSA CIP 4.83, read-out: MIC

`O=C(CCNc1ccnc2cc(Cl)ccc12)NC[C@H]1CN(c2ccc(N3CCOCC3)c(F)c2)C(=O)O1` [PA 1185, (5S)-3-(7-Chloroquinolin-4-ylamino)-N-[3-(3-fluoro-4-morpholin-4-yl-phenyl)-2-oxo-oxazolidin-5-ylmethyl]-propionamide] was tested, and the MIC ([1]; Streptococcus pneumoniae, S. pneumoniae PSSP CQI 201, read-out: MIC) was 1.25 µg/mL (≈ 2.37 µM) and the MIC ([2]; C. difficile CIP 104282, read-out: MIC) was 0.16 µg/mL (≈ 0.303 µM).

`Cl.O=C(O)c1cn(C2CC2)c2cc(N3CCN(c4ccnc5cc(C(F)(F)F)ccc45)CC3)c(F)cc2c1=O` [PA 1284, 1-Cyclopropopyl-6-fluoro-4-oxo-7-[4-(7-trifluoromethylquinolin-4-yl)-piperazin-1-yl]-1,4-dihydroquinoline-3-carboxylic acid hydrochloride salt] was tested, and the MIC [3] was 0.039 µg/mL, the MIC [4] was over 5 µg/mL and the MIC [5] was 0.625 µg/mL. For the same compound, the MIC [6] was 1.25 µg/mL, the MIC [7] was 0.625 µg/mL and the MIC [8] was 0.625 µg/mL. For the same compound, the MIC [9, 21] was 0.156 µg/mL.

`Cl.O=C(O)c1cn(C2CC2)c2cc(N3CCN(c4ccnc5c(Cl)cccc45)CC3)c(F)cc2c1=O` [PA 1285, 7-[4-(8-Chloroquinolin-4-yl)-piperazin-1-yl]-1-cyclopropopyl-6-fluoro-4-oxo-1,4-dihydroquinoline-3-carboxylic acid hydrochloride salt] gave an MIC [3] of 0.039 µg/mL, an MIC [4] of over 5 µg/mL and an MIC [5] of 0.156 µg/mL. The MIC [6] was 0.625 µg/mL, the MIC [7] was 0.156 µg/mL and the MIC [8] was 0.312 µg/mL. It also gave an MIC [9, 21] of 0.02 µg/mL.

Compound `CC[C@H]1NC(=O)[C@@H](NC(=O)c2ncccc2O)[C@@H](C)OC(=O)[C@H](c2ccccc2)NC(=O)[C@@H]2CC(=O)CCN2C(=O)[C@H](Cc2ccc(N(C)C)cc2)N(C)C(=O)[C@@H]2CCCN2C1=O` [Pristinamycin IA, reference compound] ({Picolinoyl(3-OH)}-T[dAbu]P[NMePhe(4-NMe2)][Pip(4-oxo)][Phg]; ester 1-C) has an MIC ([1]; S. pneumoniae PSSP CQI 201) of 0.31 µg/mL (≈ 0.358 µM), an MIC ([10]; S. aureus MRSA clinical isolate) of 5 µg/mL (≈ 5.77 µM) and an MIC ([11]; S. pyogenes CIP 56.41T) of 1.25 µg/mL (≈ 1.44 µM). The MIC ([9]; S. aureus MSSA CIP 4.83) was 2.5 µg/mL (≈ 2.88 µM).

`CN[C@H](CC(C)C)C(=O)N[C@H]1C(=O)N[C@@H](CC(N)=O)C(=O)N[C@H]2C(=O)N[C@H]3C(=O)N[C@H](C(=O)N[C@H](C(=O)O)c4cc(O)cc(O)c4-c4cc3ccc4O)[C@H](O)c3ccc(c(Cl)c3)Oc3cc2cc(c3O[C@@H]2O[C@H](CO)[C@@H](O)[C@H](O)[C@H]2O[C@H]2C[C@](C)(N)[C@H](O)[C@H](C)O2)Oc2ccc(cc2Cl)[C@H]1O` [Vancomycin, reference compound] was tested, and the MIC ([1]; Streptococcus pneumoniae) was 0.2 µg/mL (≈ 0.138 µM), the MIC [12] was 1.56 µg/mL (≈ 1.08 µM) and the MIC [13] was 0.75 µg/mL (≈ 0.518 µM). The MIC ([10]; Staphylococcus aureus, MRSA) was 0.78 µg/mL (≈ 0.538 µM), the ED50 [14] was 0.16 mg/kg and the MIC ([11]; Streptococcus pyogenes, CIP56) was 0.2 µg/mL (≈ 0.138 µM). For the same compound, the MIC [15] was 25 µg/mL (≈ 17.3 µM), the MIC [16] was over 50 µg/mL and the MIC [17] was over 50 µg/mL. It also gave an MIC [18] of 0.39 µg/mL (≈ 0.269 µM), an MIC [19] of 0.78 µg/mL (≈ 0.538 µM) and an MIC [2] of 0.31 µg/mL (≈ 0.214 µM). For the same compound, the MIC ([9]; Staphylococcus aureus) was 0.78 µg/mL (≈ 0.538 µM) and the MIC [20] was 1.56 µg/mL (≈ 1.08 µM).
